Read-outs that look alike come from different tables or passages of the source. Blank lines part the entries; values can stand above or below the compound they belong to.
Assays:
MMP2 = target: T1, MMP2 (Homo sapiens, UniProt P08253); assay: Ilomastat inhibition of MMP2 activity; assay type: biochemical; settings: 910 μM ilomastat, MMP2 1.4 μg, 37 °C, 24 hours, HPLC of fragmented peptide
T1 sequence (P08253 110-660): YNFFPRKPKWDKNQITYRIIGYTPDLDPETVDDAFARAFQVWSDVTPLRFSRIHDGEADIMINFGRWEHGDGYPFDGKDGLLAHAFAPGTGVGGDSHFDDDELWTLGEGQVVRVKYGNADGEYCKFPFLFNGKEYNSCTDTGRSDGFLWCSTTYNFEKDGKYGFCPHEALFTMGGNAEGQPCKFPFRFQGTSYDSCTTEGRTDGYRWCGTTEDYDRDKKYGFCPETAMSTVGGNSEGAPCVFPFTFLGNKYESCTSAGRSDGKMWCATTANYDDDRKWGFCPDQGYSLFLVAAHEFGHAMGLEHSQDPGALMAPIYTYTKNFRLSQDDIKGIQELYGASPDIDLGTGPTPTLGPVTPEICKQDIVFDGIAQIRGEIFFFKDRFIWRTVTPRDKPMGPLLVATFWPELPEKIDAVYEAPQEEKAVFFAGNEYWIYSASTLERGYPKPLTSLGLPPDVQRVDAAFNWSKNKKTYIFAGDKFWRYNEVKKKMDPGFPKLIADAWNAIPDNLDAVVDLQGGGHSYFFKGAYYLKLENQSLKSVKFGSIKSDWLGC

Integrin αvβ3 [1] = settings: read-out: IC50 value by cell adhesion; cited from earlier work
Integrin αvβ3 [2] = settings: read-out: IC50 value by fluorescence polarization; cited from earlier work
αvβ3 [3] = settings: read-out: IC50 value; published pentapeptides; cited from earlier work
αvβ3 [4] = settings: read-out: IC50 value; published pentapeptides; cited from earlier work; remark: listed apart in the source

inhibition of MMP2 cleavage of [64Cu]c(RGDfE)K(DOTA)PLGVRY (MMP2): inhibition of the peptide cleavage
Compound: CNC(=O)[C@H](Cc1c[nH]c2ccccc12)NC(=O)[C@@H](CC(=O)NO)CC(C)C [ilomastat, N-[(2R)-2-(hydroxamidocarbonylmethyl)-4-methylpentanoyl]-L-tryptophan methylamide]

Compound: c(ERGDf) (head to tail)
IC50 (Integrin αvβ3 [1]): 3200 ± 160 nM | IC50 (Integrin αvβ3 [2]): 280 ± 4 nM

Compound: c(RGDfK)
IC50 (αvβ3 [3]): 4.2 nM

Compound: c(rGDFV) (head to tail)
IC50 (αvβ3 [4]): 25000 ± 4000 nM
